According to patent publication US6362212B1, “Oxime derivative and bactericide containing the same as active ingredient” (Shionogi & Company, Ltd., priority 1994, dated 2002):

Experiments:
[1] = system: Erysiphe graminis f. sp. tritici; assay: Controlling effect on Erysiphe graminis f. sp. tritici by foliage application (pot experiment); type: in vivo; settings: foliage spray on wheat (cv. NORIN No. 61) seedlings, infected area after 10 days in greenhouse at 20° C.
Procedure: The following Test Examples illustrate the effects of the fungicide of the present invention. (I. Controlling effects on various plant diseases by foliage application (pot experiment)) A test compound was dissolved in a small amount of N,N-dimethylformamide, and the solution was diluted to a given concentration with distilled water containing a spreader. Thus, a liquid sample to be tested was prepared. The liquid sample was sprayed to test plants, and 24 hours thereafter, pathogens were inoculated by the method described below. […] The seeds of wheat (cv.: NORIN No. 61) were sown in plastic cups (each 9 cm in diameter), followed by cultivation for 2 to 3 weeks. The test compound in the form of a solution or suspension was sprayed to the seedlings, and conidia of Erysiphe graminis f. sp. tritici cultured on wheat leaves were dropped on the test plants to inoculate the plants with the pathogen. After the inoculation, the plants were kept in a greenhouse at 20° C. for 10 days. The infected area on the leaf was observed, and the percent control was calculated.

[2] = system: Sphaerotheca fuliginea; assay: Controlling effect on Sphaerotheca fuliginea by foliage application (pot experiment); type: in vivo; settings: foliage spray on cucumber (cv. TSUKUBASHIROIBO) first leaves, infected area after 10 days in greenhouse at 20° C.
Procedure: The following Test Examples illustrate the effects of the fungicide of the present invention. (I. Controlling effects on various plant diseases by foliage application (pot experiment)) A test compound was dissolved in a small amount of N,N-dimethylformamide, and the solution was diluted to a given concentration with distilled water containing a spreader. Thus, a liquid sample to be tested was prepared. The liquid sample was sprayed to test plants, and 24 hours thereafter, pathogens were inoculated by the method described below. […] Seeds of cucumber ([…]) were sown in plastic cups (each 9 cm in diameter), followed by cultivation for 2 to 3 weeks. The liquid test sample in the form of a solution or suspension was sprayed on the surface of their first leaves. The pathogen was inoculated to the leaves by spraying a conidia suspension of Sphaerotheca fuliginea which had been cultured on the cucumber leaves. After the inoculation, the plants were kept in a greenhouse at 20° C. for 10 days. Then, the infected area on the leaf was observed, and the percent control was calculated.

Row | Compound | Controlling effect on ErYsiphe graminis f. sp. tritici by foliage application at 500 ppm (percent control) [1] | Controlling effect on Sphaerotheca fuliginea by foliage application at 500 ppm (percent control) [2]
1 | CON=C(C1=NCCN1C)c1ccccc1Oc1ccccc1 (mixture of isomers) [compound 1161] | 90 percent control | 70 percent control
2 | CON=C(C1=NCCS1)c1ccccc1Oc1ccccc1 (mixture of isomers) [compound 1515] | 90 percent control | 70 percent control
3 | CCON=C(c1ccon1)c1ccccc1COc1ccccc1C (mixture of isomers) [compound 1665] | 70 percent control | –
4 | C=CCON=C(c1ccon1)c1ccccc1COc1ccccc1C (mixture of isomers) [compound 1667] | 70 percent control | –
5 | CON=C(c1ccccc1COc1ccccc1)c1nccn1C (single isomer, unassigned) [101A] | – | 70 percent control
6 | CON=C(c1ccccc1COc1ccc(F)cc1)c1nccn1C (single isomer, unassigned) [104A] | 90 percent control | 97 percent control
7 | CON=C(c1ccccc1COc1ccc(F)cc1)c1nccn1C (single isomer, unassigned) [104B] | 70 percent control | –
8 | CON=C(c1ccccc1COc1ccccc1C)c1nccn1C (single isomer, unassigned) [112B] | – | 90 percent control
9 | CON=C(c1ccccc1COc1cccc(C)c1)c1nccn1C (single isomer, unassigned) [113B] | – | 90 percent control
10 | CON=C(c1ccccc1COc1cccc(C(F)(F)F)c1)c1nccn1C (single isomer, unassigned) [122B] | – | 100 percent control
11 | CON=C(c1ccccc1COc1cc(Cl)ccc1Cl)c1nccn1C (single isomer, unassigned) [131B] | – | 100 percent control
12 | CON=C(c1ccccc1COc1ccc(-c2ccccc2)cc1)c1nccn1C (single isomer, unassigned) [144B] | – | 70 percent control
13 | CON=C(c1cc(C)no1)c1ccccc1COc1ccccc1Cl (single isomer, unassigned) [605B] | 90 percent control | 100 percent control
14 | CON=C(c1cc(C)no1)c1ccccc1COc1ccc(Cl)cc1C (single isomer, unassigned) [641B] | 90 percent control | 100 percent control
15 | CON=C(c1ncon1)c1ccccc1COc1cc(C)ccc1C (single isomer, unassigned) [836A] | 97 percent control | 100 percent control
16 | CON=C(c1ncon1)c1ccccc1COc1cc(C)ccc1C (single isomer, unassigned) [836B] | 97 percent control | 100 percent control
17 | CON=C(c1noc(C)n1)c1ccccc1COc1cc(C)ccc1C (single isomer, unassigned) [936B] | 90 percent control | 97 percent control
18 | CON=C(C1=NCCN1C)c1ccccc1COc1cccc(C(F)(F)F)c1 (single isomer, unassigned) [1122A] | 70 percent control | –
19 | CON=C(C1=NCCN1C)c1ccccc1COc1cccc(C(F)(F)F)c1 (single isomer, unassigned) [1122B] | 90 percent control | 100 percent control
20 | CON=C(C1=NCCO1)c1ccccc1Oc1ccccc1 (single isomer, unassigned) [1341A] | 90 percent control | 70 percent control
21 | CON=C(C1=NCCO1)c1ccccc1Oc1ccccc1 (single isomer, unassigned) [1341B] | 90 percent control | 70 percent control

Row | Compound | Controlling effect on ErYsiphe graminis f. sp. tritici by foliage application at 500 ppm (percent control) [1] | Controlling effect on Sphaerotheca fuliginea by foliage application at 500 ppm (percent control) [2]
22 | CON=C(c1ccccc1COc1cc(C)ccc1C)c1ccnn1C (single isomer, unassigned) [1554B] | 70 percent control | –
23 | CON=C(c1ccco1)c1ccccc1COc1cc(C)ccc1C (single isomer, unassigned) [1634A] | 97 percent control | 100 percent control
24 | CON=C(c1ccco1)c1ccccc1COc1cc(C)ccc1C (single isomer, unassigned) [1634B] | – | 70 percent control
25 | CON=C(c1ccccc1COc1ccc(Cl)cc1)n1cnc(C)c1 [Compound No. 227] | 70 percent control | 97 percent control
26 | CCON=C(c1ccccc1COc1ccccc1)n1cnc(C)c1 [compound 235] | 90 percent control | –
27 | CON=C(c1ccccc1COc1ccccc1Cl)n1cncn1 [compound 265] | 70 percent control | –
28 | CON=C(c1ccccc1COc1ccc(C)cc1)n1cncn1 [compound 270] | 90 percent control | 97 percent control
29 | CON=C(c1ccccc1COc1cc(C)ccc1C)n1cccn1 [compound 294] | – | 97 percent control
30 | CON=C(c1nnco1)c1ccccc1COc1ccc(Cl)cc1 [compound 707] | 90 percent control | 100 percent control
31 | CON=C(c1ncon1)c1ccccc1COc1ccccc1Cl [compound 805] | – | 97 percent control
32 | CON=C(C1=NCCN1C)c1ccccc1COc1ccccc1 [compound 1101] | 90 percent control | –
33 | CON=C(C1=NCCN1C)c1ccccc1COc1ccc(C)cc1 [compound 1114] | 70 percent control | 70 percent control
34 | CON=C(C1=NCCN1C)c1ccccc1COc1ccccc1C(F)(F)F [compound 1121] | 90 percent control | 100 percent control
35 | CON=C(C1=NCCO1)c1ccccc1COc1ccccc1Cl [compound 1305] | – | 70 percent control
36 | CON=C(C1=NCCO1)c1ccccc1COc1ccc(C)cc1 [compound 1312] | – | 70 percent control
37 | CON=C(C1=NCCN1)c1ccccc1COc1ccccc1Cl [compound 1455] | 70 percent control | –
38 | CON=C(c1ncno1)c1ccccc1COc1cc(C)ccc1C [compound 1590] | – | 70 percent control
39 | CON=C(c1cc(C)ns1)c1ccccc1COc1cc(C)ccc1C [compound 1654] | 70 percent control | –
40 | CON=C(C1=NCCO1)c1ccccc1Oc1ccc(C(F)(F)F)cn1 [compound 1826] | – | 70 percent control
41 | CON=C(C1=NCCO1)c1ccccc1Oc1ncc(C(F)(F)F)cc1Cl [compound 1829] | 90 percent control | –
42 | CON=C(c1noc(C)n1)c1cc(Cl)ccc1Oc1ccc(C(F)(F)F)cn1 [compound 2120] | – | 70 percent control
